The values below come from patent US8686146B2, “Azaindenoisoquinoline topoisomerase I inhibitors” (Purdue Research Foundation, priority 2012, dated 2014).

Counter-ions that a name gives are not always drawn.

One data set relates to UACC-62. In words: NCI screen antiproliferative activity, melanoma UACC-62.
For another data set, the system named is SF-539. In words: NCI screen antiproliferative activity, CNS SF-539.
For a further data set, the system named is OVCAR-3. In words: NCI screen antiproliferative activity, ovarian OVCAR-3.
Data set [1] concerns approximately 60 different human cancer cell lines. The experiment in a line: NCI screen, mean graph midpoint over all cell lines. The class given is cell-based. The following applies: all human cancer cell lines successfully tested; 48 h; Table 2.
A further data set deals with DU-145. The experiment in a line: NCI screen antiproliferative activity, prostate DU-145.
The test system of the next data set is SN12C. The experiment in a line: NCI screen antiproliferative activity, renal SN12C.
For a further data set, the system named is HCT-116. In words: NCI screen antiproliferative activity, colon HCT-116.
The target in the next data set is T1, human recombinant Top1 (Homo sapiens, UniProt P11387).
T1 construct: made in house
T1 sequence (P11387 1-765): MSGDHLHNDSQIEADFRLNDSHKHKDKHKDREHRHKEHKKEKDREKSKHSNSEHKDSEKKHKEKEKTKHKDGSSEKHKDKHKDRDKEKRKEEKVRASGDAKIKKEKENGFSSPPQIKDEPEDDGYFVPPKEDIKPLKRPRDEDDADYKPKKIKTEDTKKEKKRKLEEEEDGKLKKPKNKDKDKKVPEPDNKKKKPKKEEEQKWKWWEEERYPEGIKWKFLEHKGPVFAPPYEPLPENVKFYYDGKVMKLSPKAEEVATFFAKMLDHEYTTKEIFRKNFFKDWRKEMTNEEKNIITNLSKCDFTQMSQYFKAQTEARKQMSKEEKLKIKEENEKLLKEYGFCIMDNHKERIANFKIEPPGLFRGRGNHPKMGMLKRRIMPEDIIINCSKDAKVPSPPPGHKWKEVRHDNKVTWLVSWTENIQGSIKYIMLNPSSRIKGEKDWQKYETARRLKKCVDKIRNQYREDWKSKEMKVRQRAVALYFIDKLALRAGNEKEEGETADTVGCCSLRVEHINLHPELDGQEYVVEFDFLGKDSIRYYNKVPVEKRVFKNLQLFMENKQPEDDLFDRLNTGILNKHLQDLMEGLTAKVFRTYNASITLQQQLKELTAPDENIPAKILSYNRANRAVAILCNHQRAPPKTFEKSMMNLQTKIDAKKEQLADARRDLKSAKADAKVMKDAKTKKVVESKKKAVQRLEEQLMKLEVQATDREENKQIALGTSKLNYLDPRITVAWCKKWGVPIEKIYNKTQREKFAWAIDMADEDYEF
The experiment in a line: Top1-mediated DNA cleavage assay. The class given is biochemical. As to conditions: semiquantitative, relative to compounds 1 and 2; Table 2. How it is done:
Unincorporated [^32P]dGTP was removed using mini Quick […] columns (Roche, Indianapolis, Ind.), and the eluate containing the […] DNA substrate was collected. […] Aliquots of each reaction mixture were subjected to 20% denaturing PAGE. […] The DNA fragments were separated on a denaturing gel. […] All of the target compounds were tested for induction of DNA damage in Top1-mediated DNA cleavage assays, as described above.

For another data set, the system named is MCF7. The experiment in a line: NCI screen antiproliferative activity, breast MCF7.
The next data set has as its system HOP-62. In words: NCI screen antiproliferative activity, lung HOP-62.

With `CN(C)CCCn1c2c(c3ccccc3c1=O)C(=O)c1cccnc1-2` (as salt: hydrochloride) [Compound 18, 7-Aza-5,6-dihydro-6-(3-dimethylaminopropyl)-5,11-dioxo-11H-indeno[1,2-c]-isoquinoline Hydrochloride], the melting point was in the range of 268 to 270 °C.
Consider `COc1cc2c3c(n(CCCN(C)C)c(=O)c2cc1OC)-c1ncccc1C3=O` (as salt: hydrochloride) [Compound 19, 7-Aza-5,6-dihydro-6-(3-dimethylaminopropyl)-2,3-dimethoxy-5,11-dioxo-11H-indeno[1,2-c]isoquinoline Hydrochloride], for which the melting point was 278 to 281 °C (dec.).
As to `COc1cc2c3c(n(CCCN(C)C)c(=O)c2cc1OC)-c1ccncc1C3=O.O=C(O)C(F)(F)F` [Compound 127, 9-Aza-5,6-dihydro-6-(3-dimethylaminopropyl)-2,3-dimethoxy-5,11-dioxo-11H-indeno[1,2-]isoquinoline Trifluoroacetate], the concentration for 50% growth inhibition (GI50) was more than 100 µM in the data set on UACC-62; 12 µM in the data set on SF-539; 7.4 µM with OVCAR-3; 2.9 µM in the data set on DU-145; 8.5 µM in the data set with SN12C; 0.62 µM in the data set with HCT-116. Also, the GI50 was found to be 3.9 µM in the data set with MCF7 and 6.5 µM in the data set on HOP-62. In addition, the “MGM (mean graph midpoint for growth inhibition)” value in [1] was determined as 6.5 µM. At human recombinant Top1, the “Top1 Cleavage” value is listed as “+ (+ weak activity;)”.
For the compound `COc1cc2c3c(n(CCCN4CCOCC4)c(=O)c2cc1OC)-c1ccncc1C3=O.O=C(O)C(F)(F)F` [Compound 128, 9-Aza-5,6-dihydro-6-(3-(4-morpholino)propyl)-2,3-dimethoxy-5,11-dioxo-11H-indeno[1,2-c]isoquinoline Trifluoroacetate], the 50% growth inhibitory concentration (GI50) in the data set on UACC-62 was 85 µM; in the data set with SF-539 it was more than 100 µM; in the data set on OVCAR-3, 12 µM; in the data set on DU-145, 7.6 µM; in the data set with SN12C it was 5.9 µM; in the data set on HCT-116, 0.39 µM. The concentration for 50% growth inhibition (GI50) with MCF7 was 1.9 µM; in the data set with HOP-62, 5 µM. Moreover, in data set [1], the “MGM (mean graph midpoint for growth inhibition)” value was found to be 9.5 µM. On human recombinant Top1, the “Top1 Cleavage” value was “++”.

Usually melting point stands for the temperature of the solid-liquid transition. Usually GI50 stands for the concentration giving 50% growth inhibition. A low value points to greater sensitivity of the cells.
